According to publication PMC5762859, “Distribution analysis of epertinib in brain metastasis of HER2-positive breast cancer by imaging mass spectrometry and prospect for antitumor activity” (Scientific Reports, 2018):
Read-outs that look alike come from different tables or passages of the source.

Legend:
HER2 = test system: HER2; parameters: method as in PMID 24837299; details: cited from earlier work
[1] = test system: HER2-positive metastatic breast cancer patients; parameters: method as in earlier work; details: cited from earlier work; for Objective response rate (ORR): heavily pretreated HER2-positive metastatic breast cancer
[2] = test system: patients with solid tumors; parameters: method as in PMID 25434923, PMID 25434923, PMID 25434923; details: phase I trials; cited from earlier work
MDA-MB-361 cell line = test: In vitro growth inhibition of parental cell line; type: cell-based; details: Homo sapiens
From the text: (§1) We evaluated the inhibitory activity of epertinib on the in vitro growth of the parental cell line, MDA-MB-361. […] To compare the growth inhibitory activity of epertinib on the parental and metastatic (BR2) cell lines, we evaluated the antitumor activity of epertinib in both cell lines. […] To confirm the antitumor activity of epertinib in the IVM, we examined the effect of epertinib on the IVM transplanted BR2.

MDA-MB-361-luc-BR2 = test: Mammary fat pad implantation model, antitumor activity; type: in vivo, mice; details: Mus musculus, 672 h; BR2 in mammary fat pad, oral daily for 28 days
From the text: as §1
(§2) Figure 6 In vivo antitumor activity of epertinib in the breast cancer IVM. Epertinib inhibits the growth of breast cancer in animal models. In each animal model, vehicle or indicated doses of epertinib were orally administered daily. Tumor volume was measured twice or thrice weekly and the mean tumor volume with SD is represented by each data point. Human breast cancer cells, MDA-MB-361 (A) or MDA-MB-361-luc-BR2 (B) was implanted orthotopically into the mammary fat pad of mice. Tumor-bearing mice were treated for 28 days (A and B). Tumor growth in the breast cancer IVM ([…]) was monitored by the photons emitted from the tumor as an indicator, which was measured with an IVIS Imaging System 200 (Caliper Life Sciences). […] The photons were measured once or twice weekly and the mean photons/sec with SD are presented at each data point (n = 3 for vehicle, n = 4 for 50 mg/kg of epertinib) (C). […]

MDA-MB-361 = test: as above; type: in vivo, mice; details: Mus musculus, 672 h; MDA-MB-361 in mammary fat pad, oral daily for 28 days
From the text: as §1, §2

[3] = test system: experimental brain metastasis of HER2-positive breast cancer (IVM); test: Antitumor activity in the breast cancer IVM (bioluminescence); type: in vivo, mice; details: once daily oral 50 mg/kg, 30 days, photons emitted from tumor
From the text: as §1, §2

P-glycoprotein (P-gp) [4] = target: T1, P-glycoprotein (P-gp) (Homo sapiens, UniProt P08183); test: P-gp substrate assessment; type: in vitro ADME; details: from permeability and efflux ratio across Caco-2 cell monolayers
T1 construct: permeability and efflux ratio of epertinib across Caco-2 cell monolayers; endogenous in cells; host or cells: Caco-2
T1 sequence (P08183 whole entry): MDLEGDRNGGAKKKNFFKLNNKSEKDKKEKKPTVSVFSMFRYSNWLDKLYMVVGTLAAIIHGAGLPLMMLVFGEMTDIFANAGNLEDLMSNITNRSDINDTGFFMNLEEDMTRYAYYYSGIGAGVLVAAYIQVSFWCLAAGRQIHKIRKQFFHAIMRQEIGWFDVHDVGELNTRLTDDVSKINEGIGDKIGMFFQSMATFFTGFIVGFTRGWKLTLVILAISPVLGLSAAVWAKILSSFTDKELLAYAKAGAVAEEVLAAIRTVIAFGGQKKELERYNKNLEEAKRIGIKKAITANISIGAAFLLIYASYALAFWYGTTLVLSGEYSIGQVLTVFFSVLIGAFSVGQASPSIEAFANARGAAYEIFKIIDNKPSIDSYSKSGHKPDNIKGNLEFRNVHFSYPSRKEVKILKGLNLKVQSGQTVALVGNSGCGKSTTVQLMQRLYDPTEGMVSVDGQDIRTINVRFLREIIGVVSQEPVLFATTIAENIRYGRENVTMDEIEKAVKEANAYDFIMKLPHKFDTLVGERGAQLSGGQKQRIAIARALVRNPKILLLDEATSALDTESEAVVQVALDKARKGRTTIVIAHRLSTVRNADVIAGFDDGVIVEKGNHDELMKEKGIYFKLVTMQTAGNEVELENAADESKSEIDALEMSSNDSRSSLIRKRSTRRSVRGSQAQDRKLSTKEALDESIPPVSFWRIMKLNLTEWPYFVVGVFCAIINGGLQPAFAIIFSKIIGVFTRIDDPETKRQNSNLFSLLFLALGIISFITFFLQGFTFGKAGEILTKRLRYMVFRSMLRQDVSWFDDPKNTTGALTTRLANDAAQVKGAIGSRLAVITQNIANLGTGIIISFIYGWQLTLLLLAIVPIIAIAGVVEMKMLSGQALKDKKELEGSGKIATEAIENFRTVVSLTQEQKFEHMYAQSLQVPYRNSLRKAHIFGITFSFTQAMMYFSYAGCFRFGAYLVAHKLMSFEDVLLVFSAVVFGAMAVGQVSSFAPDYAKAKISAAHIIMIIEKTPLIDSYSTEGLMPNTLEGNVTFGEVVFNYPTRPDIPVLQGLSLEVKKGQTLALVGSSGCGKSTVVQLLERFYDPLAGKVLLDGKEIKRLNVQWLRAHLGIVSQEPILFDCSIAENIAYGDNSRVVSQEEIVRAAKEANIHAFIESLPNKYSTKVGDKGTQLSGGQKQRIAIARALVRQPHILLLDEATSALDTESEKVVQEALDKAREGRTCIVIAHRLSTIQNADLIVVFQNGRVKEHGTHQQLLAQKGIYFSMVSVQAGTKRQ

P-glycoprotein (P-gp) [5] = target: T1, P-glycoprotein (P-gp); details: cited from earlier work
[6] = test system: HER2-positive metastatic breast cancer patients; details: historical data, combination with trastzumab; cited from earlier work
[7] = target: T2, breast cancer resistance protein (BCRP) (Homo sapiens, UniProt Q9UNQ0); details: cited from earlier work
T2 construct: permeability and efflux ratio of epertinib across Caco-2 cell monolayers; endogenous in cells; host or cells: Caco-2
T2 sequence (Q9UNQ0 1-655): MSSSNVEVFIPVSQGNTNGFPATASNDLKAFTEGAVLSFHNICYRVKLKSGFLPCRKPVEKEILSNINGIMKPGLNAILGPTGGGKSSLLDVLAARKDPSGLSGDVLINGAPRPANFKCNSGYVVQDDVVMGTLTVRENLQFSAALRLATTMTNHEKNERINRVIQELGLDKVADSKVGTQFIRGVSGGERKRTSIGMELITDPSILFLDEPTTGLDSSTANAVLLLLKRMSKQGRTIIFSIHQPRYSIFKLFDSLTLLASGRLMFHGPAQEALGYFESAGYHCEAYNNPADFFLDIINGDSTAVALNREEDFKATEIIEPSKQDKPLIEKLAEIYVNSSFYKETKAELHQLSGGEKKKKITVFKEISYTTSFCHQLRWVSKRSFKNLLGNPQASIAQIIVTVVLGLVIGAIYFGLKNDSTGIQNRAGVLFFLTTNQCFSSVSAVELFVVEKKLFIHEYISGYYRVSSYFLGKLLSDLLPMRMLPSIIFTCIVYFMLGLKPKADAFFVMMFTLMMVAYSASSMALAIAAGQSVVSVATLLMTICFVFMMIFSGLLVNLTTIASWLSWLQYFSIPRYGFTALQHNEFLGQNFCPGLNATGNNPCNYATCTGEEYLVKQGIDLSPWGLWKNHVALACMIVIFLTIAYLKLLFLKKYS

[8] = test system: albumin and α-1 acid glycoprotein; parameters: method as in PMID 25547867; details: cited from earlier work
[9] = healthy volunteers, single oral 250 mg [14C]-lapatinib; cited from earlier work

## CC#CC(=NOCC1COCCN1)c1ccc2ncnc(Nc3ccc(OCc4cccc(F)c4)c(Cl)c3)c2c1 (stereo not shown) [Epertinib]
HER2
  Off-rate of dissociation compared with lapatinib: slower off-rate of dissociation
[1]; all the participants in a clinical trial
  Tumor reduction (partial response), brain metastases as the target lesion: two of 45
[1]; in combination with trastuzumab and capecitabine
  Objective response rate (ORR): 56%
[1]; in combination with trastuzumab
  Objective response rate (ORR): 67%
[1]; in combination with trastuzumab, patients previously treated with lapatinib plus capecitabine or ado-trastuzumab emtansine
  Tumor response (patients): seven of 21
[2]
  Tolerability: well tolerated
MDA-MB-361 cell line
  IC50: 26.5 nM
MDA-MB-361-luc-BR2
  ED50: 26.5 mg/kg
MDA-MB-361
  ED50: 24.1 mg/kg
[3]
  Effect on brain tumor volume: significantly reduced the brain tumor volume
P-glycoprotein (P-gp) [4]
  P-gp substrate: not a substrate

## CS(=O)(=O)CCNCc1ccc(-c2ccc3ncnc(Nc4ccc(OCc5cccc(F)c5)c(Cl)c4)c3c2)o1 [Lapatinib, N-{3-chloro-4-[(3-fluorobenzyl)oxy]phenyl}-6-[5-({[2-(methylsulfonyl)ethyl]amino}methyl)-2-furyl]-4-quinazolinamine, reference compound]
P-glycoprotein (P-gp) [5]
  P-gp substrate: substrates
[6]
  Objective response rate (ORR): 10.3%
[7]
  BCRP substrate: substrates
[8]
  Binding to albumin and α-1 acid glycoprotein: > 99.9%
[9]
  Mean plasma concentration of lapatinib at Cmax: 330 ng/mL
